Measured values reported in the NIST ThermoML archive (doi:10.1016/j.jct.2017.02.004).

What was measured:
[1] = 100 kPa, Liquid; for speed of sound: Frequency=3 MHz, Single path-length method; for mass density: Vibrating tube method
[2] = mn = molality of the nth substance listed, in mol/kg; conditions: 100 kPa, Liquid; for speed of sound: Frequency=3 MHz, Single path-length method; for mass density: Vibrating tube method

CCCCn1cc[n+](C)c1.F[B-](F)(F)F [1-butyl-3-methylimidazolium tetrafluoroborate]
[1]
Conditions	mass density [kg/m3]	speed of sound [m/s]
288.15 K	1209.05	1591
293.15 K	1205.5	1578.9
298.15 K	1201.96	1566.9
303.15 K	1198.42	1555.1
308.15 K	1194.87	1543.4

CCCCn1cc[n+](C)c1.F[B-](F)(F)F [1-butyl-3-methylimidazolium tetrafluoroborate] + [Cl-].[Li+]
[2], m2 = 0
Conditions	mass density [kg/m3]	speed of sound [m/s]
288.15 K	1209.05	1591
293.15 K	1205.5	1578.9
298.15 K	1201.96	1566.9
303.15 K	1198.42	1555.1
308.15 K	1194.87	1543.4

[Cl-].[Li+] [lithium chloride] + CCCCn1cc[n+](C)c1.F[B-](F)(F)F
[2]
Conditions	mass density, 288.15 K [kg/m3]	mass density, 293.15 K [kg/m3]	mass density, 298.15 K [kg/m3]	mass density, 303.15 K [kg/m3]	mass density, 308.15 K [kg/m3]	speed of sound, 288.15 K [m/s]	speed of sound, 293.15 K [m/s]	speed of sound, 298.15 K [m/s]	speed of sound, 303.15 K [m/s]	speed of sound, 308.15 K [m/s]
m1 = 0.0999	1211.1	1207.56	1204.03	1200.53	1196.98	1595.5	1583.3	1571.2	1559.4	1547.7
m1 = 0.1499	1212.17	1208.61	1205.08	1201.61	1198.07	1597.7	1585.4	1573.3	1561.4	1549.7
m1 = 0.2	1213.24	1209.68	1206.14	1202.69	1199.16	1599.7	1587.3	1575.2	1563.3	1551.5
m1 = 0.2501	1214.33	1210.73	1207.22	1203.79	1200.27	1601.7	1589.2	–	1565.1	1553.2
m1 = 0.3003	1215.46	1211.88	1208.31	1204.94	1201.37	1603.5	1591	1578.7	1566.7	1554.9
m1 = 0.3498	1216.56	1212.93	1209.36	1206.04	1202.5	1605.3	1592.6	1580.3	1568.2	1556.2
